Target: P. falciparum apicoplast DNA polymerase (Pf-apPOL) (Plasmodium falciparum, UniProt Q8ILY1)
Assay: Fluorescence-based high-throughput DNA polymerase assay (molecular beacon), primary screen and dose-response
Format: biochemical
Conditions: for DNA Pol: 90 min, 10 µM; for % inhibition Apo pol 10' 2.5 / % inhibition Apo pol 10' 5 / % inhibition Apo pol 10' 10 / % inhibition Apo pol 10' 20 / % inhibition Apo pol 10' 40 / % inhibition Apo pol 10' 80: read at 10'; for % inhibition Apol 90' 2.5 / % inhibition Apol 90' 5 / % inhibition Apol 90' 10 / % inhibition Apol 90' 20 / % inhibition Apol 90' 40 / % inhibition Apol 90' 80 / % inhibition ApPOL 90' 2.5 / % inhibition ApPOL 90' 5 / % inhibition ApPOL 90' 10 / % inhibition ApPOL 90' 20 / % inhibition ApPOL 90' 40 / % inhibition ApPOL 90' 80: read at 90'; for % inhibition apPOL 180' 2.5 / % inhibition apPOL 180' 5 / % inhibition apPOL 180' 10 / % inhibition apPOL 180' 20 / % inhibition apPOL 180' 40 / % inhibition apPOL 180' 80: read at 180'; for % inhibition Apo pol 5' 2.5 / % inhibition Apo pol 5' 5 / % inhibition Apo pol 5' 10 / % inhibition Apo pol 5' 20 / % inhibition Apo pol 5' 40 / % inhibition Apo pol 5' 80: read at 5'; for % inhibition Apol 40' 2.5 / % inhibition Apol 40' 5 / % inhibition Apol 40' 10 / % inhibition Apol 40' 20 / % inhibition Apol 40' 40 / % inhibition Apol 40' 80: read at 40'
Procedure, shortened: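 Single-point screening used 10 µM compound with 20 nM polymerase, 20 nM hairpin substrate and 6 µM dNTPs for 90 min at 25 °C. Confirmatory titrations (2.5–80 µM) followed fluorescence at three times, and IC50 was derived from a fit including a cooperativity term n.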

[1] = 186 hits, DNA Pol (screen value), unit not given
[2] = 'DNA Pol' (screen value), unit not given
[3] = 'DNA Pol' of the 186 hits list (primary screen value)

Chain of P. falciparum apicoplast DNA polymerase (Pf-apPOL) (Q8ILY1 entry or part of it): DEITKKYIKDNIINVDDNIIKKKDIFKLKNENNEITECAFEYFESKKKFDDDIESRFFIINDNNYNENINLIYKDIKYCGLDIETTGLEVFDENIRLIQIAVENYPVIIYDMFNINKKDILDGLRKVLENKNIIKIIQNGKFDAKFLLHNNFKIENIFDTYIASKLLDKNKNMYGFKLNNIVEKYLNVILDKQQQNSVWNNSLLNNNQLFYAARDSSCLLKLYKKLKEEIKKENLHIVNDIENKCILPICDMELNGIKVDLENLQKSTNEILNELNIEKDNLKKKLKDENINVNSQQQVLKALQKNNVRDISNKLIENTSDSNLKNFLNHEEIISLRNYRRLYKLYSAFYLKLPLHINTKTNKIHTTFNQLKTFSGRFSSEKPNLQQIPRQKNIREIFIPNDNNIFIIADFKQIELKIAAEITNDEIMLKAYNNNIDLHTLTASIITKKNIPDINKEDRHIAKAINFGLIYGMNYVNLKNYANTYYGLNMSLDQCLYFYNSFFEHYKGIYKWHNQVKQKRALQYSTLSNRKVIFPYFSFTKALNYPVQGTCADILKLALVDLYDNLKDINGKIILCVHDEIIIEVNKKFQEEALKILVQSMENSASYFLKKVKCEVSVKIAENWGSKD

## Nc1cc(Oc2ccc(O)c(N)c2)ccc1O [KU0034728]
[1]
  DNA Pol: 65
[2]
  DNA Pol: 65
DRC-1, concentration 2.5
  % inhibition Apo pol 10' 2.5: 19.846%
  % inhibition Apol 90' 2.5: 8.186%
  % inhibition apPOL 180' 2.5: 2.338%
DRC-1, concentration 5
  % inhibition Apo pol 10' 5: 31.2811%
  % inhibition Apol 90' 5: 16.785%
  % inhibition apPOL 180' 5: 7.101%
DRC-1, concentration 10
  % inhibition Apo pol 10' 10: 55.4709%
  % inhibition Apol 90' 10: 34.847%
  % inhibition apPOL 180' 10: 22.2951%
DRC-1, concentration 20
  % inhibition Apo pol 10' 20: 70.5604%
  % inhibition Apol 90' 20: 48.9946%
  % inhibition apPOL 180' 20: 34.6321%
DRC-1, concentration 40
  % inhibition Apo pol 10' 40: 80.3003%
  % inhibition Apol 90' 40: 59.758%
  % inhibition apPOL 180' 40: 46.6312%
DRC-1, concentration 80
  % inhibition Apo pol 10' 80: 87.2374%
  % inhibition Apol 90' 80: 68.9049%
  % inhibition apPOL 180' 80: 55.3391%
DRC-2, concentration 5
  % inhibition Apo pol 5': 43%
  % inhibition Apo pol 5' 5: 43%
  % inhibition Apol 40' 5: 44%
  % inhibition ApPOL 90' 5: 40%
  % inhibition apPOL 180' 5: 26%
DRC-2, concentration 20
  % inhibition Apol 40': 65%
  % inhibition ApPOL 90': 65%
  % inhibition Apo pol 5' 20: 52%
  % inhibition Apol 40' 20: 65%
  % inhibition ApPOL 90' 20: 65%
  % inhibition apPOL 180' 20: 59%
DRC-2, concentration 40
  % inhibition Apol 40': 74%
  % inhibition apPOL 180': 74%
  % inhibition Apo pol 5' 40: 56%
  % inhibition Apol 40' 40: 74%
  % inhibition ApPOL 90' 40: 76%
  % inhibition apPOL 180' 40: 74%
DRC-2, concentration 2.5
  % inhibition ApPOL 90': 43%
  % inhibition Apo pol 5' 2.5: 42%
  % inhibition Apol 40' 2.5: 47%
  % inhibition ApPOL 90' 2.5: 43%
  % inhibition apPOL 180' 2.5: 31%
DRC-2, concentration 10
  % inhibition apPOL 180': 43%
  % inhibition Apo pol 5' 10: 50%
  % inhibition Apol 40' 10: 57%
  % inhibition ApPOL 90' 10: 55%
  % inhibition apPOL 180' 10: 43%
DRC-2, concentration 80
  % inhibition Apo pol 5' 80: 30%
  % inhibition Apol 40' 80: 64%
  % inhibition ApPOL 90' 80: 71%
  % inhibition apPOL 180' 80: 75%

## O=C(NNC(=O)c1ccc(Cl)cc1)C(=O)NNC(=O)c1ccc(Cl)cc1 [Molecule 25, O=C(C(=O)NNC(=O)c1ccc(cc1)Cl)NNC(=O)c1ccc(cc1)Cl]
[3]
  DNA Pol: 75
DNA Pol (primary screen value)
  DNA Pol: 75
DRC-1, concentration 2.5
  % inhibition Apo pol 10': 0.1123%
  % inhibition Apol 90': -1.798%
  % inhibition apPOL 180': -4.906%
DRC-1, concentration 5
  % inhibition Apo pol 10': 29.8674%
  % inhibition Apol 90': 28.7698%
  % inhibition apPOL 180': 25.5591%
DRC-1, concentration 10
  % inhibition Apo pol 10': 53.2072%
  % inhibition Apol 90': 48.8169%
  % inhibition apPOL 180': 45.9729%
DRC-1, concentration 20
  % inhibition Apo pol 10': 61.5061%
  % inhibition Apol 90': 54.9619%
  % inhibition apPOL 180': 50.6657%
DRC-1, concentration 40
  % inhibition Apo pol 10': 64.1413%
  % inhibition Apol 90': 57.5316%
  % inhibition apPOL 180': 53.135%
DRC-1, concentration 80
  % inhibition Apo pol 10': 75.0048%
  % inhibition Apol 90': 69.6376%
  % inhibition apPOL 180': 64.4119%
DRC-2, concentration 2.5
  % inhibition Apo pol 5': 2.6%
  % inhibition Apol 40': 2%
  % inhibition ApPOL 90': 0.656%
  % inhibition apPOL 180': -2.65%
DRC-2, concentration 5
  % inhibition Apo pol 5': 10%
  % inhibition Apol 40': 13%
  % inhibition ApPOL 90': 13%
  % inhibition apPOL 180': 7.39%
DRC-2, concentration 10
  % inhibition Apo pol 5': 29%
  % inhibition Apol 40': 35%
  % inhibition ApPOL 90': 36%
  % inhibition apPOL 180': 30%
DRC-2, concentration 20
  % inhibition Apo pol 5': 45%
  % inhibition Apol 40': 54%
  % inhibition ApPOL 90': 54%
  % inhibition apPOL 180': 48%
DRC-2, concentration 40
  % inhibition Apo pol 5': 49%
  % inhibition Apol 40': 58%
  % inhibition ApPOL 90': 60%
  % inhibition apPOL 180': 55%
DRC-2, concentration 80
  % inhibition Apo pol 5': 51%
  % inhibition Apol 40': 62%
  % inhibition ApPOL 90': 64%
  % inhibition apPOL 180': 62%

## O=C1CCCC2=C1C(c1ccccn1)C1=C(CCCC1=O)O2 [KU0194228]
[3]
  DNA Pol: 11
DNA Pol (primary screen value)
  DNA Pol: 11
DRC-1, concentration 2.5
  % inhibition Apo pol 10': 1.279%
  % inhibition Apol 90': 2.669%
  % inhibition apPOL 180': 5.61%
DRC-1, concentration 5
  % inhibition Apo pol 10': 9.9789%
  % inhibition Apol 90': 9.934%
  % inhibition apPOL 180': 16.0813%
DRC-1, concentration 10
  % inhibition Apo pol 10': 33.5344%
  % inhibition Apol 90': 28.061%
  % inhibition apPOL 180': 29.7893%
DRC-1, concentration 20
  % inhibition Apo pol 10': 43.7332%
  % inhibition Apol 90': 43.923%
  % inhibition apPOL 180': 44.3828%
DRC-1, concentration 40
  % inhibition Apo pol 10': 62.1087%
  % inhibition Apol 90': 56.4118%
  % inhibition apPOL 180': 53.3605%
DRC-1, concentration 80
  % inhibition Apo pol 10': 77.9707%
  % inhibition Apol 90': 74.3626%
  % inhibition apPOL 180': 68.1872%
DRC-2, concentration 2.5
  % inhibition Apo pol 5': 5%
  % inhibition Apol 40': 2.6%
  % inhibition ApPOL 90': 2%
  % inhibition apPOL 180': -0.328%
DRC-2, concentration 5
  % inhibition Apo pol 5': 4%
  % inhibition Apol 40': -9%
  % inhibition ApPOL 90': -14%
  % inhibition apPOL 180': -74%
DRC-2, concentration 10
  % inhibition Apo pol 5': 22%
  % inhibition Apol 40': 15%
  % inhibition ApPOL 90': 18%
  % inhibition apPOL 180': 22%
DRC-2, concentration 20
  % inhibition Apo pol 5': 33%
  % inhibition Apol 40': 33%
  % inhibition ApPOL 90': 37%
  % inhibition apPOL 180': 41%
DRC-2, concentration 40
  % inhibition Apo pol 5': 44%
  % inhibition Apol 40': 46%
  % inhibition ApPOL 90': 49%
  % inhibition apPOL 180': 48%
DRC-2, concentration 80
  % inhibition Apo pol 5': 43%
  % inhibition Apol 40': 52%
  % inhibition ApPOL 90': 58%
  % inhibition apPOL 180': 60%

## Cc1ccc(N2CCC(NC(=O)Cc3cccs3)C2=O)cc1C (stereo not shown) [Molecule 57, O=C(NC1CCN(C1=O)c1ccc(c(c1)C)C)Cc1cccs1]
[1]
  DNA Pol: 30
[2]
  DNA Pol: 30
DRC-1, concentration 2.5
  % inhibition Apo pol 10' 2.5: -4.081%
  % inhibition Apol 90' 2.5: -2.123%
  % inhibition apPOL 180' 2.5: -1.073%
DRC-1, concentration 5
  % inhibition Apo pol 10' 5: 5.106%
  % inhibition Apol 90' 5: 4.8282%
  % inhibition apPOL 180' 5: 1.4295%
DRC-1, concentration 10
  % inhibition Apo pol 10' 10: 22.9359%
  % inhibition Apol 90' 10: 19.3171%
  % inhibition apPOL 180' 10: 11.4485%
DRC-1, concentration 20
  % inhibition Apo pol 10' 20: 41.5954%
  % inhibition Apol 90' 20: 42.7079%
  % inhibition apPOL 180' 20: 30.1368%
DRC-1, concentration 40
  % inhibition Apo pol 10' 40: 44.443%
  % inhibition Apol 90' 40: 53.5477%
  % inhibition apPOL 180' 40: 47.6529%
DRC-1, concentration 80
  % inhibition Apo pol 10' 80: 44.3208%
  % inhibition Apol 90' 80: 61.4172%
  % inhibition apPOL 180' 80: 62.3607%
DRC-2, concentration 10
  % inhibition Apo pol 5': 24%
  % inhibition Apo pol 5' 10: 24%
  % inhibition Apol 40' 10: 32%
  % inhibition ApPOL 90' 10: 30%
  % inhibition apPOL 180' 10: 22%
DRC-2, concentration 20
  % inhibition Apo pol 5': 24%
  % inhibition ApPOL 90': 47%
  % inhibition Apo pol 5' 20: 24%
  % inhibition Apol 40' 20: 44%
  % inhibition ApPOL 90' 20: 47%
  % inhibition apPOL 180' 20: 43%
DRC-2, concentration 40
  % inhibition ApPOL 90': 47%
  % inhibition Apo pol 5' 40: 6.44%
  % inhibition Apol 40' 40: 39%
  % inhibition ApPOL 90' 40: 47%
  % inhibition apPOL 180' 40: 49%
DRC-2, concentration 2.5
  % inhibition Apo pol 5' 2.5: -1.72%
  % inhibition Apol 40' 2.5: -1.82%
  % inhibition ApPOL 90' 2.5: -2.11%
  % inhibition apPOL 180' 2.5: -1.11%
DRC-2, concentration 5
  % inhibition Apo pol 5' 5: 2.54%
  % inhibition Apol 40' 5: 5.58%
  % inhibition ApPOL 90' 5: 5%
  % inhibition apPOL 180' 5: 3.34%
DRC-2, concentration 80
  % inhibition Apo pol 5' 80: -4.26%
  % inhibition Apol 40' 80: 37%
  % inhibition ApPOL 90' 80: 48%
  % inhibition apPOL 180' 80: 55%

Reference: PMC9090415, “Discovery of small molecule inhibitors of Plasmodium falciparum apicoplast DNA polymerase” (Journal of Enzyme Inhibition and Medicinal Chemistry, 2022)
